What was measured:
[1] = test system: HCV genotype 1a (H77 strain) replicon in HUH-7 cells; assay: HCV replicon luciferase reporter assay, genotype 1a; type: cell-based; settings: Hepatitis C virus, Huh-7, 72 h, HCV genotype 1a replicon luciferase assay, 3 days incubation, range class, read-out: LE_1a (EC50, range)
Method in brief: (§1)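 Replicon inhibition for both genotypes was measured as Renilla luciferase signal (EnduRen, 7.5 μM final, 2 h) after 3-day, 37° C exposure of replicon-bearing HUH-7 cells in 4% FCS DMEM, 0.5% DMSO. The 1b construct carries S1179I; the 1a H77 construct carries P1496L and S2204I. Twenty-point, 3-fold dilutions were fitted four-parametrically for EC50, and CC50 was taken from multiplexed Cell Titer-Blue.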

[2] = test system: HCV genotype 1b (Con1) replicon in HUH-7 cells; assay: HCV replicon luciferase reporter assay, genotype 1b; type: cell-based; settings: Hepatitis C virus, Huh-7, 72 h, HCV genotype 1b replicon luciferase assay, 3 days incubation, range class, read-out: LE_1b (EC50, range)
Method in brief: as §1

| Compound | EC50 [1] [nM] | EC50 [2] [nM] |
| --- | --- | --- |
| COCCOc1cc2c(Cl)cccc2c(O[C@@H]2C[C@H]3C(=O)N[C@]4(C(=O)NS(=O)(=O)C5(C)CC5)C[C@H]4/C=C\CC[C@H](C)C[C@@H](C)[C@H](NC(=O)OC(C)(C)C(C)(F)F)C(=O)N3C2)n1 [Compound 1115, 3,3-difluoro-2-methylbutan-2-yl((2R,6S,7R,9S,13aS,14aR,16aS,Z)-2-((5-chloro-3-(2-methoxyethoxyl)isoquinolin-1-yl)oxy)-7,9-dimethyl-14a-(((1-methylcyclopropyl)sulfonyl)carbamoyl)-5,16-dioxo-1,2,3,5,6,7,8,9,10,11,13a,14,14a,15,16,16a-hexadecahydrocyclopropa[e]pyrrolo[1,2-a][1,4]diazacyclopentadecin-6-yl)carbamate] | < 5.46 | < 5.46 |
| COCCOc1cc2c(Cl)cccc2c(O[C@@H]2C[C@H]3C(=O)N[C@]4(C(=O)NS(=O)(=O)C5(C)CC5)C[C@H]4/C=C\CC[C@@H](C)C[C@@H](C)[C@H](NC(=O)OC(C)(C)C(C)(F)F)C(=O)N3C2)n1 [Compound 1116, 3,3-difluoro-2-methylbutan-2-yl((2R,6S,7R,9R,13aS,14aR,16aS,Z)-2-((5-chloro-3-(2-methoxyethoxyl)isoquinolin-1-yl)oxy)-7,9-dimethyl-14a-(((1-methylcyclopropyl)sulfonyl)carbamoyl)-5,16-dioxo-1,2,3,5,6,7,8,9,10,11,13a,14,14a,15,16,16a-hexadecahydrocyclopropa[e]pyrrolo[1,2-a][1,4]diazacyclopentadecin-6-yl)carbamate] | < 5.46 | < 5.46 |
| COCCOc1cc2c(Cl)cccc2c(O[C@@H]2C[C@H]3C(=O)N[C@]4(C(=O)NS(=O)(=O)C5(C)CC5)C[C@H]4/C=C\CC[C@H](C)C[C@@H](C)[C@H](NC(=O)OC(C)(C)C)C(=O)N3C2)n1 [Compound 1117, tert-butyl ((2R,6S,7R,9S,13aS,14aR,16aS,Z)-2-((5-chloro-3-(2-methoxyethoxyl)isoquinolin-1-yl)oxy)-7,9-dimethyl-14a-(((1-methylcyclopropyl)sulfonyl)carbamoyl)-5,16-dioxo-1,2,3,5,6,7,8,9,10,11,13a,14,14a,15,16,16a-hexadecahydrocyclopropa[e]pyrrolo[1,2-a][1,4]diazacyclopentadecin-6-yl)carbamate] | < 5.46 | < 5.46 |
| COCCOc1cc2c(Cl)cccc2c(O[C@@H]2C[C@H]3C(=O)N[C@]4(C(=O)NS(=O)(=O)C5(C)CC5)C[C@H]4/C=C\CC[C@@H](C)C[C@@H](C)[C@H](NC(=O)OC(C)(C)C)C(=O)N3C2)n1 [Compound 1118, tert-butyl ((2R,6S,7R,9R,13aS,14aR,16aS,Z)-2-((5-chloro-3-(2-methoxyethoxyl)isoquinolin-1-yl)oxy)-7,9-dimethyl-14a-(((1-methylcyclopropyl)sulfonyl)carbamoyl)-5,16-dioxo-1,2,3,5,6,7,8,9,10,11,13a,14,14a,15,16,16a-hexadecahydrocyclopropa[e]pyrrolo[1,2-a][1,4]diazacyclopentadecin-6-yl)carbamate] | < 5.46 | < 5.46 |
| CC[C@@H]1C[C@@H](C)CC/C=C\[C@@H]2C[C@@]2(C(=O)NS(=O)(=O)C2(C)CC2)NC(=O)[C@@H]2C[C@@H](Oc3nc(OC)cc4cc(OC)ccc34)CN2C(=O)[C@H]1NC(=O)OC(C)(C)C(F)(F)F [Compound 1119, 1,1,1-trifluoro-2-methylpropan-2-yl((2R,6S,7R,9S,13aS,14aR,16aS,Z)-2-((3,6-dimethoxyisoquinolin-1-yl)oxy)-7-ethyl-9-methyl-14a-(((1-methylcyclopropyl)sulfonyl)carbamoyl)-5,16-dioxo-1,2,3,5,6,7,8,9,10,11,13a,14,14a,15,16,16a-hexadecahydrocyclopropa[e]pyrrolo[1,2-a][1,4]diazacyclopentadecin-6-yl)carbamate] | < 5.46 | < 5.46 |
| CC[C@@H]1C[C@H](C)CC/C=C\[C@@H]2C[C@@]2(C(=O)NS(=O)(=O)C2(C)CC2)NC(=O)[C@@H]2C[C@@H](Oc3nc(OC)cc4cc(OC)ccc34)CN2C(=O)[C@H]1NC(=O)OC(C)(C)C(F)(F)F [Compound 1120, 1,1,1-trifluoro-2-methylpropan-2-yl((2R,6S,7R,9R,13aS,14aR,16aS,Z)-2-((3,6-dimethoxyisoquinolin-1-yl)oxy)-7-ethyl-9-methyl-14a-(((1-methylcyclopropyl)sulfonyl)carbamoyl)-5,16-dioxo-1,2,3,5,6,7,8,9,10,11,13a,14,14a,15,16,16a-hexadecahydrocyclopropa[e]pyrrolo[1,2-a][1,4]diazacyclopentadecin-6-yl)carbamate] | < 5.46 | < 5.46 |
| CC[C@@H]1C[C@@H](C)CC/C=C\[C@@H]2C[C@@]2(C(=O)NS(=O)(=O)C2(C)CC2)NC(=O)[C@@H]2C[C@@H](Oc3nc(OC)cc4cc(OC)ccc34)CN2C(=O)[C@H]1NC(=O)OC1(C(F)(F)F)COC1 [Compound 1121, 3-(trifluoromethyl)oxetan-3-yl((2R,6S,7R,9S,13aS,14aR,16aS,Z)-2-((3,6-dimethoxyisoquinolin-1-yl)oxy)-7-ethyl-9-methyl-14a-(((1-methylcyclopropyl)sulfonyl)carbamoyl)-5,16-dioxo-1,2,3,5,6,7,8,9,10,11,13a,14,14a,15,16,16a-hexadecahydrocyclopropa[e]pyrrolo[1,2-a][1,4]diazacyclopentadecin-6-yl)carbamate] | < 5.46 | < 5.46 |
| CC[C@@H]1C[C@H](C)CC/C=C\[C@@H]2C[C@@]2(C(=O)NS(=O)(=O)C2(C)CC2)NC(=O)[C@@H]2C[C@@H](Oc3nc(OC)cc4cc(OC)ccc34)CN2C(=O)[C@H]1NC(=O)OC1(C(F)(F)F)COC1 [Compound 1122, 3-(trifluoromethyl)oxetan-3-yl ((2R,6S,7R,9R,13aS,14aR,16aS,Z)-2-((3,6-dimethoxyisoquinolin-1-yl)oxy)-7-ethyl-9-methyl-14a-(((1-methylcyclopropyl)sulfonyl)carbamoyl)-5,16-dioxo-1,2,3,5,6,7,8,9,10,11,13a,14,14a,15,16,16a-hexadecahydrocyclopropa[e]pyrrolo[1,2-a][1,4]diazacyclopentadecin-6-yl)carbamate] | < 5.46 | < 5.46 |
| CC[C@@H]1C[C@@H](C)CC/C=C\[C@@H]2C[C@@]2(C(=O)NS(=O)(=O)C2(C)CC2)NC(=O)[C@@H]2C[C@@H](Oc3nc(OC)cc4cc(OC)ccc34)CN2C(=O)[C@H]1NC(=O)OC(C)(C)C(C)(F)F [Compound 1123, 3,3-difluoro-2-methylbutan-2-yl((2R,6S,7R,9S,13aS,14aR,16aS,Z)-2-((3,6-dimethoxyisoquinolin-1-yl)oxy)-7-ethyl-9-methyl-14a-(((1-methylcyclopropyl)sulfonyl)carbamoyl)-5,16-dioxo-1,2,3,5,6,7,8,9,10,11,13a,14,14a,15,16,16a-hexadecahydrocyclopropa[e]pyrrolo[1,2-a][1,4]diazacyclopentadecin-6-yl)carbamate] | < 5.46 | < 5.46 |
| CC[C@@H]1C[C@H](C)CC/C=C\[C@@H]2C[C@@]2(C(=O)NS(=O)(=O)C2(C)CC2)NC(=O)[C@@H]2C[C@@H](Oc3nc(OC)cc4cc(OC)ccc34)CN2C(=O)[C@H]1NC(=O)OC(C)(C)C(C)(F)F [Compound 1124, 3,3-difluoro-2-methylbutan-2-yl((2R,6S,7R,9R,13aS,14aR,16aS,Z)-2-((3,6-dimethoxyisoquinolin-1-yl)oxy)-7-ethyl-9-methyl-14a-(((1-methylcyclopropyl)sulfonyl)carbamoyl)-5,16-dioxo-1,2,3,5,6,7,8,9,10,11,13a,14,14a,15,16,16a-hexadecahydrocyclopropa[e]pyrrolo[1,2-a][1,4]diazacyclopentadecin-6-yl)carbamate] | < 5.46 | < 5.46 |
| COc1ccc2c(O[C@@H]3C[C@H]4C(=O)N[C@]5(C(=O)NS(=O)(=O)C6(CF)CC6)C[C@H]5/C=C\CC[C@@H](C)C[C@@H](C)[C@H](NC(=O)OC(C)(C)C)C(=O)N4C3)nc(OC)cc2c1 [Compound 1125, tert-butyl ((2R,6S,7R,9R,13aS,14aR,16aS,Z)-2-((3,6-dimethoxyisoquinolin-1-yl)oxy)-14a-(((1-(fluoromethyl)cyclopropyl)sulfonyl)carbamoyl)-7,9-dimethyl-5,16-dioxo-1,2,3,5,6,7,8,9,10,11,13a,14,14a,15,16,16a-hexadecahydrocyclopropa[e]pyrrolo[1,2-a][1,4]diazacyclopentadecin-6-yl)carbamate] | < 5.46 | < 5.46 |
| COc1ccc2c(O[C@@H]3C[C@H]4C(=O)N[C@]5(C(=O)NS(=O)(=O)C6(CF)CC6)C[C@H]5/C=C\CC[C@H](C)C[C@@H](C)[C@H](NC(=O)OC(C)(C)C(F)(F)F)C(=O)N4C3)nc(OC)cc2c1 [Compound 1126, 1,1,1-trifluoro-2-methylpropan-2-yl((2R,6S,7R,9S,13aS,14aR,16aS,Z)-2-((3,6-dimethoxyisoquinolin-1-yl)oxy)-14a-(((1-(fluoromethyl)cyclopropyl)sulfonyl)carbamoyl)-7,9-dimethyl-5,16-dioxo-1,2,3,5,6,7,8,9,10,11,13a,14,14a,15,16,16a-hexadecahydrocyclopropa[e]pyrrolo[1,2-a][1,4]diazacyclopentadecin-6-yl)carbamate] | 4.82 to 103 | < 5.46 |
| COc1ccc2c(O[C@@H]3C[C@H]4C(=O)N[C@]5(C(=O)NS(=O)(=O)C6(CF)CC6)C[C@H]5/C=C\CC[C@@H](C)C[C@@H](C)[C@H](NC(=O)OC(C)(C)C(F)(F)F)C(=O)N4C3)nc(OC)cc2c1 [Compound 1127, 1,1,1-trifluoro-2-methylpropan-2-yl((2R,6S,7R,9R,13aS,14aR,16aS,Z)-2-((3,6-dimethoxyisoquinolin-1-yl)oxy)-14a-(((1-(fluoromethyl)cyclopropyl)sulfonyl)carbamoyl)-7,9-dimethyl-5,16-dioxo-1,2,3,5,6,7,8,9,10,11,13a,14,14a,15,16,16a-hexadecahydrocyclopropa[e]pyrrolo[1,2-a][1,4]diazacyclopentadecin-6-yl)carbamate] | < 5.46 | < 5.46 |
